Laboratory results published in patent US9963473B2, “Stabilized form of tetrofosmin and its use” (priority 2014, dated 2018).

Experiments:
[1] = Hygroscopicity (open vial, change of weight); assay type: physicochemical
Description: An open vial of Tetrofosmin x 2 HBF4 was stored at room temperature, normal atmosphere and 50% humidity.

[2] = Storage stability of Tetrofosmin x 2 HBF4 (1H and 31P NMR spectra); assay type: physicochemical
Method: Tetrofosmin x 2 HBF4 was stored at room temperature without protective gas (e. g. argon or nitrogen). In accordance to example 1, the ^1H and ^31P spectra were unchanged after 12 months.
Moreover, Tetrofosmin x 2 HBF4 was heated in a normal atmosphere (with oxygen) at 50° C. for 6 hours.

Compound: Tetrofosmin x 2 HBF4
- change of weight (hygroscopicity) ([1]; open vial, room temperature, normal atmosphere, 50% humidity, after 72 h): no change of weight
- 1H and 31P spectra after heating ([2]; normal atmosphere (with oxygen), 50° C. for 6 hours): no sign of degradation
- 1H and 31P spectra after storage ([2]; room temperature, without protective gas, after 12 months): unchanged

Compound: CCOCCP(CCOCC)CCP(CCOCC)CCOCC.Cl [Tetrofosmin hydrochloride, reference compound]
- physical nature / hygroscopicity ([1]; own experiments of the inventors): oily and hygrospcopic
